Assay results as given in patent US20070074297A1, “TAAR1 knock out animal” (priority 2005, published 2007).
Values joined by “and” are separate entries in the source; they are usually repeats but may differ in a detail not shown here. Equal values may be shown once. “Also recorded” adds a separate entry of the source.

Experiments:
[1] = tested on: dopaminergic neurons in the VTA; experiment: Slice electrophysiology, spontaneous firing rate in the ventral tegmental area (current clamp); assay type: cell-based, mouse; settings: for spike frequency F of dopaminergic neurons: bath application 10 μM
Procedure: Horozontal slices (250 μm thick, VT1000 vibratome, Leica) of the midbrain were prepared from TAAR1 knock-out and littermate wild-type mice 25-60 days of age. Slices were cooled in artificial cerebrospinal fluid (ACSF) containing in mM: 119 NaCl, 2.5 KCl, 1.3 MgCl2, 2.5 CaCl2, 1.0 NaH2PO4, 26.2 NaHCO3 and 11 glucose. Slices were continuously bubbled with 95% O2 and 5% CO2 and transferred after 1 h to the recording chamber superfused (1.5 ml/min) with ACSF at 32-34° C. The VTA was identified as the region medial to the medial terminal nucleus of the accessory optical tract. Visualized whole-cell current-clamp recording techniques were used to measure the spontaneous firing rate and holding currents of neurons. […] Dopaminergic neurons were identified by a large Ih current. The internal solution contained in mM: 140 potassium gluconate, 4 NaCl, 2 MgCl2, 1.1 EGTA, 5 HEPES, 2 Na2ATP, 5 sodium creatine phosphate and 0.6 Na2GTP; the pH was adjusted to 7.3 with KOH. Data were obtained with an Axopatch 200B (Axon Instruments, Union City, Calif., USA), filtered at 2 kHz and digitized at 10 kHz, acquired and analyzed with pClamp9 (Axon Instruments, Union City, Calif., USA). Values are expressed as mean±sem. For statistical comparisons we used the Kolmogorov-Smirnov test. The level of significance was set at P=0.05.

[2] = tested on: TAAR1^+/+ and TAAR1^LacZ/LacZ mice; experiment: Locomotor activity after d-amphetamine challenge (Digiscan activity monitor); assay type: in vivo, mouse; settings: 2.5 mg/kg i.p.
Procedure: Locomotor activity. A computerized Digiscan 16 Animal Activity Monitoring System (Omnitech Electronics, Colombus, Ohio) was used to quantitate spontaneous locomotor activity. Data were obtained simultaneously from eight Digiscan activity chambers placed in a soundproof room with a 12 hr light/dark cycle. All tests were performed during the light phase (6 a.m. to 6 p.m.). Each activity monitor consisted of a Plexiglas box (20×20×30.5 cm) with sawdust bedding on the floor surrounded by invisible horizontal and vertical infrared sensor beams. The cages were connected to a Digiscan Analyzer linked to a PC that constantly collected the beam status information. With this system, different behavioral parameters could be measured, such as horizontal and vertical activity, total distance travelled (in cm), and stereotypies. The mice were tested via a pseudo-Latin squares design […] with at least a 10-day interval between two consecutive test sessions. […] Locomotor activity was recorded for 90 min starting immediately after the mice were placed in the cages.
Statistics. Behavioral observations were recorded as mean values SE and analyzed with an unpaired t test. Locomotor activity data (total distance) were analyzed with a two-factor (Genotype and Dose) ANOVA with repeated measures. […]

[3] = tested on: TAAR1^+/+ and TAAR1^LacZ/LacZ mice; experiment: In vivo microdialysis of extracellular biogenic amines in the striatum after d-amphetamine; parameters: species or system mouse
Procedure: Four months old male mice were used for these experiments. The procedures used for the experiments described in this report received prior approval from the City of Basel Cantonal Animal Protection Committee based on adherence to federal and local regulations on animal maintenance and testing.
Forty-five minutes before anesthesia mice received subcutaneously 0.075 mg/kg of buprenorfine. Mice were then anesthetized with isoflurane and placed in a stereotaxic device equipped with dual manipulators arms and an anesthetic mask. Anesthesia was maintained with isoflurane 0.8-1.2% (v/v; support gas oxygen/air, 2:1). The head was shaved and the skin was cut along the midline to expose the skull. A small bore hole was made in the skull to allow the stereotaxical insertion of the microdialysis probe (vertical probe carrying a 2 mm polyacrilonitrile dialysis membrane; Brains On-line, Groningen, The Netherlands) in the striatum (coordinates: A 0.9 mm, L-1.8 mm, V-4.6 mm). The probe was cemented into place using binary dental cement. Once the cement was firm, the wound was closed with silk thread for suture (Silkam) the animal was removed from the stereotaxic instrument and returned to its cage. At the end of the surgery and 24 hrs later mice were treated with Meloxicam 1 mg/kg sc. The body weight of the animals was measured before the surgery and in the following days to monitor the recovery of the animal from surgery.
All microdialysis experiments were carried out 3-4 days after surgery in awake, freely moving mice. The day of the experiment, the inlet of the implanted dialysis probe was connected to a micro-perfusion pump (CMA/Microdialysis, Sweden) and the outlet was connected to a fraction collector. The microdialysis probe was then perfused with Ringer solution (NaCl 147 mM, KCl 3 mM, CaCl2 1.2 mM, MgC12 1.2 mM) at a constant flow rate of 1.5 μL/min and […] Four samples of dialysates were collected before pharmacological treatment to determine the baseline levels of biogenic amines and their metabolites. Mice were then treated intraperitoneally with 2.5 mg/kg of amphetamine and dialysate samples collected for further 2.5 hrs. Dialysate samples were stored frozen at −80° C. until analysis.
Frozen dialysate samples were shipped in dry ice to Brains On-Line for assay of monoamines and their metabolites. The concentrations of dopamine, DOPAC, serotonin, 5-HIAA and noradrenaline were measured by use an HPLC equipped with an electrochemical detector according to the procedure of van der Vegt et al. (2003).
Concentrations of norepinephrine, dopamine, and serotonin were determined within the same samples by HPLC separation and electrochemical detection. Samples were split into two aliquots; one used for simultaneous analysis of norepinephrine and dopamine, the other for analysis of serotonin.
Aliquots (20 μL) were injected onto the HPLC column by a refrigerated microsampler system, consisting of a syringe pump (Gilson, model 402), a multi-column injector (Gilson, model 233 XL), and a temperature regulator (Gilson, model 832). Chromatographic separation was performed on a reverse-phase 150×2.1 mm (3 μm) C18 Thermo BDS Hypersil column (Keystone Scientific). The mobile phase (isocratic) consisted of a sodium acetate buffer (4.1 g/L Na acetate) with 2.5% v/v methanol, 150 mg/L Titriplex (EDTA), 150 mg/L 1-octanesulfonic acid, and 150 mg/L tetramethylammonium chloride (pH=4.1 adjusted with glacial acetic acid). Mobile phase was run through the system at a flow rate of 0.35 mL/min by an HPLC pump (Shimadzu, model LC-10AD vp).
Norepinephrine and dopamine were detected electrochemically using a potentiostate (Antec Leyden, model Intro) fitted with a glassy carbon electrode set at +500 mV vs. Ag/AgCl (Antec Leyden). Data were analyzed by Chromatography Data System (Shimadzu, class-vp) software. Concentrations of monoamines were quantitated by external standard method. […]

[4] = TAAR1^LacZ/LacZ mice, 2.5 mg/kg i.p.

Row | SMILES | spike frequency F of dopaminergic neurons ([1]; TAAR1^+/+ mice, n=19, control 2.1±0.3 Hz, p<0.0001) [Hz] | spike frequency F of dopaminergic neurons ([1]; TAAR1^LacZ/LacZ mice, n=15, control 16.73±1.15 Hz, p>0.05) [Hz] | effect on firing rate (spike frequency) of dopaminergic neurons, in words ([1]; wild type (TAAR1^+/+) mice) | locomotor activity (total distance moved) after d-amphetamine, compared to wild type littermates ([2]; TAAR1^LacZ/LacZ mice, n=12, 2.5 mg/kg) | locomotor activity (total distance moved) after d-amphetamine injection ([2]; wild type (TAAR1^+/+) mice) | amphetamine-triggered increase in extracellular dopamine, TAAR1^LacZ/LacZ relative to TAAR1^+/+ ([3]; 2.5 mg/kg i.p., n=7-8) [fold] | amphetamine-triggered increase in noradrenaline (norepinephrine), TAAR1^LacZ/LacZ relative to wild type ([3]; 2.5 mg/kg i.p., n=7-8, 2.5 mg/kg) | time until DOPAC levels returned to basal levels ([3]; TAAR1^LacZ/LacZ mice) [min] | increase of extracellular dopamine level over basal [3, 4] [fold] | increase of extracellular norepinephrine level over basal [3, 4] [fold] | increase of extracellular serotonin level [3, 4] [fold] | DOPAC level versus wild-type control ([3]; TAAR1^LacZ/LacZ mice, 45 min after administration) | change of extracellular DOPAC level in response to amphetamine ([3]; both TAAR1^LacZ/LacZ and TAAR1^+/+ mice, 2.5 mg/kg i.p.) | change in levels of the 5-HT metabolite 5-HIAA ([3]; both genotypes, 2.5 mg/kg i.p.) | change of extracellular serotonin level ([3]; wild type (TAAR1^+/+) mice, 2.5 mg/kg i.p., 2.5 mg/kg)
1 | NCCc1ccc(O)cc1 [p-tyramine] | 0.63±0.04 | 16.57±1.35 | significant decrease; also recorded: decreases the firing rate | – | – | – | – | – | – | – | – | – | – | – | –
2 | C[C@H](N)Cc1ccccc1 [d-amphetamine] | – | – | – | moved significantly more than wild type littermates; also recorded: significantly higher | decreased | 2.3 | 2.3 fold and 2.4 fold | 135 | 11 | 4.9 | 2.5 | significantly decreased | only a marginal decrease | No significant changes | remained unchanged; also recorded: not in their TAAR1^+/+ littermates
